Data taken from publication PMC8343220, “The selectivity of α‐adrenoceptor agonists for the human α1A, α1B, and α1D‐adrenoceptors” (Pharmacology Research & Perspectives, 2021).
Read-outs that look alike come from different tables or passages of the source. Marks after values point to notes of the source that are not given here.

Legend:
[1] = biological target: T1, human α1D‐adrenoceptor (full length) (Homo sapiens, UniProt P25100); experiment: ^3H‐prazosin whole‐cell radioligand binding, CHO‐α1D cells
T1 construct: human α1D‐adrenoceptor (full length) were used; expressed in transfected cells; host or cells: CHO-K1
T1 sequence (P25100 1-572): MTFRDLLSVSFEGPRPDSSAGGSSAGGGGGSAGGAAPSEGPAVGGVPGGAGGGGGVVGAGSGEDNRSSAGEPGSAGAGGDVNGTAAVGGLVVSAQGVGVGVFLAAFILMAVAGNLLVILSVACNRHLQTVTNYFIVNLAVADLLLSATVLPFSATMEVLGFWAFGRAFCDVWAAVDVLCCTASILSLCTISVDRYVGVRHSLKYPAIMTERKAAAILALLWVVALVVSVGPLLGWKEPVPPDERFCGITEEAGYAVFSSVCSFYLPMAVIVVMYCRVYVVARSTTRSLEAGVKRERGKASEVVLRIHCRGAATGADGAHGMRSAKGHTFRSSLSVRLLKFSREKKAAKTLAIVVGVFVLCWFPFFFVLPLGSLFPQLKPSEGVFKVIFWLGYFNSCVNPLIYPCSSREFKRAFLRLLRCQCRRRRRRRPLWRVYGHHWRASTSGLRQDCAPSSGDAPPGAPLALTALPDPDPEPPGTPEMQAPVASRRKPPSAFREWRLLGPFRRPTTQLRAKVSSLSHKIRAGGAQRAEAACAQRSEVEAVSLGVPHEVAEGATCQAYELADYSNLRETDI

human α1B‐adrenoceptor [2] = biological target: T2, human α1B‐adrenoceptor (Homo sapiens, UniProt P35368); experiment: ^3H‐cAMP accumulation, CHO‐α1B cells; format: cell-based; details: CHO‐α1B cells
T2 construct: expressed in transfected cells; host or cells: CHO-K1
T2 sequence (P35368 1-520): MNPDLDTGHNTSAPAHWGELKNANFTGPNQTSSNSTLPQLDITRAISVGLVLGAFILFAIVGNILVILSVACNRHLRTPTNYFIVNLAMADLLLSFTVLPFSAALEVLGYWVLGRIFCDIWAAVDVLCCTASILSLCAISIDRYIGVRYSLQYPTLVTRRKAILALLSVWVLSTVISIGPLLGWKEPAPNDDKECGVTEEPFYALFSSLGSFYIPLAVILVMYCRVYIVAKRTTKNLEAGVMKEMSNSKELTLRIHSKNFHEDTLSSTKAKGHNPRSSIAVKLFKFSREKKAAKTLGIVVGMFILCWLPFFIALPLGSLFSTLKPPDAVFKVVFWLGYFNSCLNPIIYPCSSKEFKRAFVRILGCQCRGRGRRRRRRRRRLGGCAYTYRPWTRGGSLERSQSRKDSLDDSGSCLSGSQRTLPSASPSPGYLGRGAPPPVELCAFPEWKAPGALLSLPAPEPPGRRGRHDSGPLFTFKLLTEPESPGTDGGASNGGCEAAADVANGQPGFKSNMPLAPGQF

human α1B‐adrenoceptor [3] = biological target: T2, human α1B‐adrenoceptor; experiment: ERK1/2‐phosphorylation (Surefire Alphascreen), CHO‐α1B cells; format: cell-based
[4] = biological target: T1, human α1D‐adrenoceptor (full length); experiment: ERK1/2‐phosphorylation (Surefire Alphascreen), CHO‐α1D cells; format: cell-based
human α1A‐adrenoceptor [5] = biological target: T3, human α1A‐adrenoceptor (Homo sapiens, UniProt P35348); experiment: ^3H‐cAMP accumulation in the presence of 10 μM forskolin, CHO‐α1A cells; format: cell-based; details: CHO‐α1A cells; for cAMP accumulation (in presence of forskolin) Log EC50: 10 μM forskolin; for cAMP accumulation (in presence of forskolin) Fold increase: fold increase of the forskolin response
T3 construct: expressed in transfected cells; host or cells: CHO-K1
T3 sequence (P35348 1-466): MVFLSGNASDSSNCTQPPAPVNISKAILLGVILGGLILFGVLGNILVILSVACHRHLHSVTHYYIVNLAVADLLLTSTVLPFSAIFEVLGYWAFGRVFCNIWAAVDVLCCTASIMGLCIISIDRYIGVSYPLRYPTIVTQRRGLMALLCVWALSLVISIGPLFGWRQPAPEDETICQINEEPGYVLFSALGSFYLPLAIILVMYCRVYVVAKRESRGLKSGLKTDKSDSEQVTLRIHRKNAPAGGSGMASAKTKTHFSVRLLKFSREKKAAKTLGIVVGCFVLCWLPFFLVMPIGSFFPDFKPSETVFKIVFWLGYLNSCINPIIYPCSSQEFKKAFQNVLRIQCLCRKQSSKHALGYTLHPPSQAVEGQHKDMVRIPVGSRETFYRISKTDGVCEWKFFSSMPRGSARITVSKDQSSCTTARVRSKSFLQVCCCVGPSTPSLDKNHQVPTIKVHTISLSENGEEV

human α1B‐adrenoceptor [6] = biological target: T2, human α1B‐adrenoceptor; experiment: ^3H‐prazosin whole‐cell radioligand binding, CHO‐α1B cells
human α1B‐adrenoceptor [7] = biological target: T2, human α1B‐adrenoceptor; experiment: Intracellular free calcium mobilization, CHO‐α1B cells; format: cell-based
[8] = biological target: T1, human α1D‐adrenoceptor (full length); experiment: ^3H‐cAMP accumulation, CHO‐α1D cells; format: cell-based; details: cAMP accumulation without forskolin
human α1A‐adrenoceptor [9] = biological target: T3, human α1A‐adrenoceptor; experiment: Intracellular free calcium mobilization, CHO‐α1A cells; format: cell-based
human α1A‐adrenoceptor [10] = biological target: T3, human α1A‐adrenoceptor; experiment: ERK1/2‐phosphorylation (Surefire Alphascreen), CHO‐α1A cells; format: cell-based
human α1A‐adrenoceptor [11] = biological target: T3, human α1A‐adrenoceptor; experiment: ^3H‐cAMP accumulation, CHO‐α1A cells; format: cell-based; details: CHO‐α1A cells; for cAMP accumulation Log EC50: 5 h; for cAMP accumulation % forskolin: % of 10 µM forskolin response
human α1B‐adrenoceptor [12] = biological target: T2, human α1B‐adrenoceptor; experiment: ^3H‐cAMP accumulation in the presence of 10 μM forskolin, CHO‐α1B cells; format: cell-based; details: CHO‐α1B cells; for cAMP accumulation (in presence of forskolin) Fold increase: fold increase of the forskolin response
[13] = biological target: T1, human α1D‐adrenoceptor (full length); experiment: Intracellular free calcium mobilization, CHO‐α1D cells; format: cell-based
human α1A‐adrenoceptor [14] = biological target: T3, human α1A‐adrenoceptor; experiment: ^3H‐prazosin whole‐cell radioligand binding, CHO‐α1A cells
[15] = biological target: T1, human α1D‐adrenoceptor (full length); experiment: ^3H‐cAMP accumulation in the presence of 10 μM forskolin, CHO‐α1D cells; format: cell-based; details: CHO‐α1D cells; for cAMP (in presence of forskolin) Fold increase: fold increase of the forskolin response; for cAMP (in presence of forskolin) Log EC50: log values given negative
[16] = CHO‐α1D cells, log values given negative

## CC(N)C(O)c1ccc(O)c(O)c1 (stereo not drawn) [α‐Methylnorepinephrine]
[1]
  3H‐prazosin binding Log KD: −4.84
  Affinity selectivity ratio α1A vs α1D: 3.3 fold
  Affinity selectivity ratio α1B vs α1D: >69.2 fold
  Log KD α1D, ^3H‐prazosin whole cell binding: −4.84 ± 0.14^early plateau
Human α1B‐adrenoceptor [2]; response at 100 µM ligand (no EC50 given)
  cAMP accumulation % forskolin at 100 µM: 129.7 ± 20.5%
Human α1B‐adrenoceptor [3]
  ERK1/2‐phosphorylation % PDBu: 90.6 ± 4.4%
  ERK1/2‐phosphorylation Log EC50: −6.75 ± 0.13
[4]
  ERK1/2‐phosphorylation % PDBu: 27.7 ± 4.9%
  ERK1/2‐phosphorylation Log EC50: −5.74 ± 0.11
Human α1A‐adrenoceptor [5]
  cAMP accumulation (in presence of forskolin) Log EC50: −5.74 ± 0.10
  cAMP accumulation (in presence of forskolin) Fold increase: 2.49 ± 0.05 fold
Human α1B‐adrenoceptor [6]
  Log IC50 α1B, ^3H‐prazosin whole cell binding: IC50>−3
Human α1B‐adrenoceptor [7]
  Intracellular calcium release % ionomycin: 69.1 ± 2.6%
  Intracellular calcium release Log EC50: −8.10 ± 0.11
  Log efficacy ratio KD /EC50: >5.10
[8]
  cAMP Log EC50: No response
Human α1A‐adrenoceptor [9]
  Intracellular calcium release % ionomycin: 65.2 ± 2.6%
  Intracellular calcium release Log EC50: −7.69 ± 0.07
  Log efficacy ratio KD /EC50: 3.37
Human α1A‐adrenoceptor [10]
  ERK1/2‐phosphorylation % PDBu: 87.5 ± 6.3%
  ERK1/2‐phosphorylation Log EC50: −6.86 ± 0.12 ^a
Human α1A‐adrenoceptor [11]
  cAMP accumulation Log EC50: −5.09 ± 0.06
  cAMP accumulation % forskolin: 166.8 ± 7.4%
Human α1B‐adrenoceptor [12]
  cAMP accumulation (in presence of forskolin) Fold increase: 3.09 ± 0.21 fold
  cAMP accumulation (in presence of forskolin) Log EC50: −5.56 ± 0.05
[13]
  Intracellular calcium release % ionomycin: 29.9 ± 3.6%
  Intracellular calcium release Log EC50: −7.02 ± 0.10
  Log efficacy ratio KD /EC50: 2.18
Human α1A‐adrenoceptor [14]
  Affinity selectivity ratio α1A vs α1B: >20.9 fold
  Log KD α1A, ^3H‐prazosin whole cell binding: −4.32 ± 0.04
[15]
  cAMP (in presence of forskolin) Fold increase: 1.23 ± 0.06
  cAMP (in presence of forskolin) Log EC50: −6.05 ± 0.12

## CCc1cccc(CC)c1NC1=NCCN1 [ST‐91]
[1]; CHO‐α1D cells, whole‐cell binding (from Table 1), log values given negative
  3H‐prazosin binding Log KD: −5.24
[1]; CHO‐α1D cells, given as log KD (negative), mean ± SEM, 'early plateau' = specific binding not fully inhibited
  Log KD α1D, ^3H‐prazosin whole cell binding: −5.24 ± 0.09
[1]; higher affinity for α1D than α1B
  Affinity selectivity ratio α1B vs α1D: 7.1 fold
Human α1B‐adrenoceptor [2]
  cAMP accumulation Log EC50: −6.52 ± 0.04
Human α1B‐adrenoceptor [2]; % forskolin maximum response
  cAMP accumulation % forskolin: 30.4 ± 3.5%
Human α1B‐adrenoceptor [3]; CHO‐α1B cells, for bi‐phasic responses the initial stimulatory part
  ERK1/2‐phosphorylation Log EC50: −7.33 ± 0.12
Human α1B‐adrenoceptor [3]; CHO‐α1B cells, maximal response as % PDBu response, for bi‐phasic responses the initial stimulatory part
  ERK1/2‐phosphorylation % PDBu: 83.6 ± 8.9%
[4]; [16]
  ERK1/2‐phosphorylation Log EC50: −5.23 ± 0.21
[4]; CHO‐α1D cells, maximal response as % of PDBu
  ERK1/2‐phosphorylation % PDBu: 21.1 ± 4.4%
Human α1A‐adrenoceptor [5]
  cAMP accumulation (in presence of forskolin) Log EC50: −7.86 ± 0.14
  cAMP accumulation (in presence of forskolin) Fold increase: 2.17 ±.10 fold
Human α1B‐adrenoceptor [6]; CHO‐α1B cells, whole‐cell binding (from Table 1), given as log KD (negative numbers)
  Log KD, ^3H‐prazosin binding: −4.39
Human α1B‐adrenoceptor [6]; CHO‐α1B cells, given as log KD (negative), mean ± SEM
  Log KD α1B, ^3H‐prazosin whole cell binding: −4.39 ± 0.04
Human α1B‐adrenoceptor [7]; CHO‐α1B cells, given as log EC50 (negative numbers)
  Intracellular calcium release Log EC50: −8.13 ± 0.17
Human α1B‐adrenoceptor [7]; CHO‐α1B cells, intrinsic efficacy ratio, KD from binding / EC50 calcium, log
  Log efficacy ratio KD /EC50: 3.74
Human α1B‐adrenoceptor [7]; CHO‐α1B cells, maximal response as % of 10 µM ionomycin response
  Intracellular calcium release % ionomycin: 62.0 ± 2.1%
[8]
  cAMP Log EC50: No response
Human α1A‐adrenoceptor [9]; CHO‐α1A cells, binding KD and calcium EC50
  Log efficacy ratio KD /EC50: 3.14
Human α1A‐adrenoceptor [9]; CHO‐α1A cells, given as log EC50 (negative)
  Intracellular calcium release Log EC50: −9.08 ± 0.11
Human α1A‐adrenoceptor [9]; CHO‐α1A cells, maximal response as % of 10 µM ionomycin
  Intracellular calcium release % ionomycin: 64.6 ± 2.6%
Human α1A‐adrenoceptor [10]; CHO‐α1A cells, 2–4 min, ^a bi‐phasic: initial stimulatory part, ^b also active in parent CHO cells
  ERK1/2‐phosphorylation Log EC50: −8.70 ± 0.06
Human α1A‐adrenoceptor [10]; CHO‐α1A cells, % of 10 µM PDBu, ^a bi‐phasic: initial stimulatory part
  ERK1/2‐phosphorylation % PDBu: 79.5 ± 5.2%
Human α1A‐adrenoceptor [11]
  cAMP accumulation Log EC50: −6.80 ± 0.05
  cAMP accumulation % forskolin: 108.2 ± 12.5%
Human α1B‐adrenoceptor [12]
  cAMP accumulation (in presence of forskolin) Fold increase: 2.34 ± 0.09 fold
  cAMP accumulation (in presence of forskolin) Log EC50: −7.23 ± 0.07
[13]; CHO‐α1D cells, intrinsic efficacy ratio, binding KD / calcium EC50
  Log efficacy ratio KD /EC50: 1.10
[13]; [16]
  Intracellular calcium release Log EC50: −6.34 ± 0.15
[13]; CHO‐α1D cells, maximal response as % of 10 µM ionomycin
  Intracellular calcium release % ionomycin: 6.3 ± 1.6%
Human α1A‐adrenoceptor [14]; CHO‐α1A cells, given as log KD (negative), mean ± SEM
  Log KD α1A, ^3H‐prazosin whole cell binding: −5.94 ± 0.01
Human α1A‐adrenoceptor [14]; higher affinity for α1A than α1B
  Affinity selectivity ratio α1A vs α1B: 35.5 fold
Human α1A‐adrenoceptor [14]; higher affinity for α1A than α1D
  Affinity selectivity ratio α1A vs α1D: 5.0 fold
[15]
  cAMP (in presence of forskolin) Fold increase: No response
  cAMP (in presence of forskolin) Log EC50: No response
